According to ChEMBL document CHEMBL1201862, “PubChem BioAssay data set” (2004):
Active and inactive are the calls of the source.

Legend:
Type in all cases: functional
[1] = biological target: Protein kinase C theta type (Homo sapiens, UniProt Q04759); experiment: Navigating the Kinome. Panel member name: PRKCQ
[2] = biological target: Dual specificity protein kinase CLK2 (Homo sapiens, UniProt P49760)
[3] = biological target: Tyrosine-protein kinase JAK2 (Homo sapiens, UniProt O60674);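 note: JAK2 tested as one member of a kinase panel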
[4] = biological target: 5'-AMP-activated protein kinase catalytic subunit alpha-1 (Homo sapiens, UniProt Q13131)
[5] = biological target: ALK tyrosine kinase receptor (Homo sapiens, UniProt Q9UM73);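 note: ALK tested as one member of a kinase panel screen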
[6] = biological target: Tyrosine-protein kinase receptor TYRO3 (Homo sapiens, UniProt Q06418);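 note: TYRO3 value obtained as one member of a kinome-wide profiling panel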
[7] = biological target: T1, Serine/threonine-protein kinase D3 (Homo sapiens, UniProt O94806);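 note: determined within a kinase panel screen, with PRKCN as the panel member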
T1 sequence (O94806 whole entry): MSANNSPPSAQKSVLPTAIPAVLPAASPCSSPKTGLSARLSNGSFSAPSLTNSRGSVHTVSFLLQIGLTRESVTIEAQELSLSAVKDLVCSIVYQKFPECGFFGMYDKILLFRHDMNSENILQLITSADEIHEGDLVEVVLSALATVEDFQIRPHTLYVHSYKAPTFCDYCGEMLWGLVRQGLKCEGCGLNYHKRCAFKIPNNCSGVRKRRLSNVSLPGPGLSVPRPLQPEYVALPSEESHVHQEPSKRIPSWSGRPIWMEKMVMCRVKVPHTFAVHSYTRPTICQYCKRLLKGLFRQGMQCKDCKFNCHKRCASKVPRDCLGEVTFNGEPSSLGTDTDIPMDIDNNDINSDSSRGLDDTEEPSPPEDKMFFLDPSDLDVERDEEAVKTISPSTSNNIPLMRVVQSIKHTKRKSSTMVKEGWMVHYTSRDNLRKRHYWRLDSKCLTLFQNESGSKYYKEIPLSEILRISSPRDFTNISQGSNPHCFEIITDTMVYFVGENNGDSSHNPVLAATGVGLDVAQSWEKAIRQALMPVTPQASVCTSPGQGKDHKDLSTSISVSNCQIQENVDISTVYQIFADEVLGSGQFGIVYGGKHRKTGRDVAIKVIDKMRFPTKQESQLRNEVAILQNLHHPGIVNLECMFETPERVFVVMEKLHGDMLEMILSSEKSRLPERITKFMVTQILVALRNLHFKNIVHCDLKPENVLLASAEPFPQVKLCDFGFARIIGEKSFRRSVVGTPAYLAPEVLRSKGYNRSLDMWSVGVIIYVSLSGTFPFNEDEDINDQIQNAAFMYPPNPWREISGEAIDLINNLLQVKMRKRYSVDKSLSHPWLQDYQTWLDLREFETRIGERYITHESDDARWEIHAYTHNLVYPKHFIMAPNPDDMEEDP

[8] = biological target: Death-associated protein kinase 3 (Homo sapiens, UniProt O43293);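 note: measured as one member of a kinome-wide profiling panel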
Sequence of Death-associated protein kinase 3 (O43293 whole entry): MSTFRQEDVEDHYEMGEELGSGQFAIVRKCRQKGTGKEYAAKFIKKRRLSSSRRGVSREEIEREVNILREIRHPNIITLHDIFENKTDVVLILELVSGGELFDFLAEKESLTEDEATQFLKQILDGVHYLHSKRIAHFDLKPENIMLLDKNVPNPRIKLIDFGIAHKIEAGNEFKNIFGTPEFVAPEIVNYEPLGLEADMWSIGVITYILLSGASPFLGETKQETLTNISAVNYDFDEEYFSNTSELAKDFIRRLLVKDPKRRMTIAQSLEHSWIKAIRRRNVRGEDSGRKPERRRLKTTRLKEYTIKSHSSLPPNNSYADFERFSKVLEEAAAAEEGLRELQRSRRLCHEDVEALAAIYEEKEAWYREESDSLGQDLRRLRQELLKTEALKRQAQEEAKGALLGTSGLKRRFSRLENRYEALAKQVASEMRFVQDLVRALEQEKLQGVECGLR

[9] = biological target: Mitogen-activated protein kinase 8 (Homo sapiens, UniProt P45983);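 note: value comes from one member of a kinome-wide kinase profiling panel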
Sequence of Mitogen-activated protein kinase 8 (P45983 whole entry): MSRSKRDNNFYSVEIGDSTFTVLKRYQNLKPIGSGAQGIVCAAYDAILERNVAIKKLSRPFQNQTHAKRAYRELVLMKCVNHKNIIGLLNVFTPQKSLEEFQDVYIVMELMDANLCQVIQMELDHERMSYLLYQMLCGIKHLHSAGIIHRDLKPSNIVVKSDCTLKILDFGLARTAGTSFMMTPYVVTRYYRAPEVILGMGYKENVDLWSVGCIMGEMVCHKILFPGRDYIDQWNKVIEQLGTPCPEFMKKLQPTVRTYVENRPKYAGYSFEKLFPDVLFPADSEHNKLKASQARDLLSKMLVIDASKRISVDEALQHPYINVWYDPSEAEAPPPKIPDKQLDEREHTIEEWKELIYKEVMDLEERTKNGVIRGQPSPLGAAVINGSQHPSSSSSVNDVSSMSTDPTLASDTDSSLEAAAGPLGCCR

[10] = biological target: Serine/threonine-protein kinase PAK 4 (Homo sapiens, UniProt O96013);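 note: value obtained within a kinome profiling panel in which PAK4 was one of the panel members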
Sequence of Serine/threonine-protein kinase PAK 4 (O96013 whole entry, canonical isoform): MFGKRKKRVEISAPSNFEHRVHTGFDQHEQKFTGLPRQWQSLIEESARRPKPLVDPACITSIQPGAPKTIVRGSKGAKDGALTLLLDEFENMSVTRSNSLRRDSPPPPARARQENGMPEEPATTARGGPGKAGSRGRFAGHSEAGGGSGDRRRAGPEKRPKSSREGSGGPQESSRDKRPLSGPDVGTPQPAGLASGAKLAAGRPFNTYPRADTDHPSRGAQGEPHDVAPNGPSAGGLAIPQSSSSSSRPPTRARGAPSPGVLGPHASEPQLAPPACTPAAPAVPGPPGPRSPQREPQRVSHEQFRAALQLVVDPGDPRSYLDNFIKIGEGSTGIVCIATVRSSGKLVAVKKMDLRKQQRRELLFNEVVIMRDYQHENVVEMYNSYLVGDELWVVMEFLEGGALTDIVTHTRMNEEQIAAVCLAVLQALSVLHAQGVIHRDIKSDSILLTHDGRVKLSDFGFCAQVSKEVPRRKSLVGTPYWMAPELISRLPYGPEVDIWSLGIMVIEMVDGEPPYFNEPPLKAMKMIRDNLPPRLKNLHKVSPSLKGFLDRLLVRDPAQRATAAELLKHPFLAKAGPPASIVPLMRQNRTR

[11] = biological target: Casein kinase I isoform alpha (Homo sapiens, UniProt P48729)
[12] = biological target: Serine/threonine-protein kinase TAO1 (Homo sapiens, UniProt Q7L7X3)
[13] = biological target: High affinity nerve growth factor receptor (Homo sapiens, UniProt P04629);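 note: NTRK1 tested as one member of a kinome-wide profiling panel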
[14] = biological target: Glycogen synthase kinase-3 alpha (Homo sapiens, UniProt P49840);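 note: GSK3A result taken from a broad kinome-wide kinase panel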
Sequence of Glycogen synthase kinase-3 alpha (P49840 whole entry): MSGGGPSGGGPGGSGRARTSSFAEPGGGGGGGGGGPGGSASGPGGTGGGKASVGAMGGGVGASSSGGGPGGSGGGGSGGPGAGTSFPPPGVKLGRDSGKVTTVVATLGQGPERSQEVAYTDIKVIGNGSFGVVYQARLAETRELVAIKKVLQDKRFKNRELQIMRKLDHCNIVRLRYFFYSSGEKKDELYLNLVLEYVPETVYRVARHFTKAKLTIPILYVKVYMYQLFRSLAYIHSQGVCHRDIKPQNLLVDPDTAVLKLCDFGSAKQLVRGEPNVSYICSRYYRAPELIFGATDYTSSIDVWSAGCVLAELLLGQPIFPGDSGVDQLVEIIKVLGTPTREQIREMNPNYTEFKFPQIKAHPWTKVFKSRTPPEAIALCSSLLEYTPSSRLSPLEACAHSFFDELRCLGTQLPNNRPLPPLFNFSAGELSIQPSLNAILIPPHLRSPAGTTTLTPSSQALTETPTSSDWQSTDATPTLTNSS

[15] = biological target: Receptor-type tyrosine-protein kinase FLT3 (Homo sapiens, UniProt P36888);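 note: FLT3 was tested as one member of a kinome-wide kinase panel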
Sequence of Receptor-type tyrosine-protein kinase FLT3 (P36888 whole entry): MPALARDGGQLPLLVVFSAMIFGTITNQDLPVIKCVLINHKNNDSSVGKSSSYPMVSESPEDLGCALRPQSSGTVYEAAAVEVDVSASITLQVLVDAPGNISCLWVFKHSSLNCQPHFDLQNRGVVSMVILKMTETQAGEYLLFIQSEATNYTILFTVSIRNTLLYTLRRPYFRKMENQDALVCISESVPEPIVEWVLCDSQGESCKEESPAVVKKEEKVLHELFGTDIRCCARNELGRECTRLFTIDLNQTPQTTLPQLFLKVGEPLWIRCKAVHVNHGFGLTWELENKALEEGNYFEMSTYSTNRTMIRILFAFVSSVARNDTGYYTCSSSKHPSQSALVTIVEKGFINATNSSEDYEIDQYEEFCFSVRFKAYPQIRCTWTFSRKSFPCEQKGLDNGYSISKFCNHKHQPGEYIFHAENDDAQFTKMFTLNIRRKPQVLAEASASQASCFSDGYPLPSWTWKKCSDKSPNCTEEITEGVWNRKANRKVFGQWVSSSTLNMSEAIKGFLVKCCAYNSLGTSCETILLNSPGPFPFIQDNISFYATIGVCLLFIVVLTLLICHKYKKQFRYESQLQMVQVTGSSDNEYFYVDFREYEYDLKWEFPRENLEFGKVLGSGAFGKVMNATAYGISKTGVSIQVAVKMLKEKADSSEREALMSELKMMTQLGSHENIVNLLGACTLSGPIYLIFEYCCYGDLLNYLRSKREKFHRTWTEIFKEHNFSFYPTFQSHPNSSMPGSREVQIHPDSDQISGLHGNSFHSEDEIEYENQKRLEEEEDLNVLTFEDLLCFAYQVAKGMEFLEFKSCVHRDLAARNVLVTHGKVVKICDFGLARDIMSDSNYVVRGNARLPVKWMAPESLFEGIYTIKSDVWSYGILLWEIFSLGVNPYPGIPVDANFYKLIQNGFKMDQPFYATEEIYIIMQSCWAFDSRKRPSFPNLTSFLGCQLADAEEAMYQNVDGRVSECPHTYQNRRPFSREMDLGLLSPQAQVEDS

[16] = biological target: G protein-coupled receptor kinase 5 (Homo sapiens, UniProt P34947); experiment: Navigating the Kinome. Panel member name: GPRK5
[17] = biological target: Cyclin-dependent kinase 5 (Homo sapiens, UniProt Q00535);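 note: CDK5 measured as one member of a kinase profiling panel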
Sequence of Cyclin-dependent kinase 5 (Q00535 whole entry): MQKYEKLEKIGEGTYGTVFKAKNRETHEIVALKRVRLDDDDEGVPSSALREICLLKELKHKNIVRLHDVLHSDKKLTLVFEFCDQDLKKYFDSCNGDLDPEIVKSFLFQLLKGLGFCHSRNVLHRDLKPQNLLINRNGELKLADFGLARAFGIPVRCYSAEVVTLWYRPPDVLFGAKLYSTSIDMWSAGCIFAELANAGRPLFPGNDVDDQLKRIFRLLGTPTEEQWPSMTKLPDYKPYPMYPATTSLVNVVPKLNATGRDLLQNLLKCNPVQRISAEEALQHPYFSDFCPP

[18] = biological target: Insulin-like growth factor 1 receptor (Homo sapiens, UniProt P08069); experiment: Navigating the Kinome. Panel member name: IGF1R
[19] = biological target: cAMP-dependent protein kinase catalytic subunit PRKX (Homo sapiens, UniProt P51817)
Sequence of cAMP-dependent protein kinase catalytic subunit PRKX (P51817 whole entry): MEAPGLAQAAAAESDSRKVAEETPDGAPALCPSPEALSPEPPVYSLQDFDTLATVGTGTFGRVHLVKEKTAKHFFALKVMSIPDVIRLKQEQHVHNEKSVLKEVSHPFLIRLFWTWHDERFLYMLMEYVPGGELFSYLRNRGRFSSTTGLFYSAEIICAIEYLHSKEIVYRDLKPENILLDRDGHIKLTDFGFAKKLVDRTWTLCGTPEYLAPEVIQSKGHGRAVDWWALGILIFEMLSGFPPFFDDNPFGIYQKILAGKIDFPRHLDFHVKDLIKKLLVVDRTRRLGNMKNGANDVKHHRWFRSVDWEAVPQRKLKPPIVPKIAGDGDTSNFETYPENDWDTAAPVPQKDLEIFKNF

[20] = biological target: Leucine-rich repeat serine/threonine-protein kinase 2 (Homo sapiens, UniProt Q5S007);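 note: value from a broad kinome-wide panel profiling study in which LRRK2 was one of the kinases tested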
[21] = biological target: Rho-associated protein kinase 1 (Homo sapiens, UniProt Q13464);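 note: measured within a broad kinome-wide panel profiling many kinases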
[22] = biological target: Tyrosine-protein kinase Fyn (Homo sapiens, UniProt P06241)
[23] = biological target: Cyclin-dependent kinase 8 (Homo sapiens, UniProt P49336); experiment: Navigating the Kinome. Panel member name: CDK8
Sequence of Cyclin-dependent kinase 8 (P49336 whole entry): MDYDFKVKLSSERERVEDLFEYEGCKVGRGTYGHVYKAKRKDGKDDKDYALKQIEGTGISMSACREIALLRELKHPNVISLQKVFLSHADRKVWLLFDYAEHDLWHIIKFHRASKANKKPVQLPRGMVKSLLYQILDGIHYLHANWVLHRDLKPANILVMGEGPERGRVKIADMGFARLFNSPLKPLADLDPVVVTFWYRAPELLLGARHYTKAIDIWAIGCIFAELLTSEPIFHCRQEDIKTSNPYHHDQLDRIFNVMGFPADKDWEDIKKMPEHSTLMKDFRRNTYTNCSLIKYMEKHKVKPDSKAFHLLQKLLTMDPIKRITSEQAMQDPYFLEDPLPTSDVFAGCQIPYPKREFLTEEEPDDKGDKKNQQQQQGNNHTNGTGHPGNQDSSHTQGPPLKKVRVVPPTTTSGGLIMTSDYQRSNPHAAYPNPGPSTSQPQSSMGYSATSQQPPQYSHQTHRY

[24] = biological target: Cyclin-dependent kinase 7 (Homo sapiens, UniProt P50613);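 note: value comes from a kinome-wide kinase profiling panel in which CDK7 is one member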
[25] = biological target: Glycogen synthase kinase-3 beta (Homo sapiens, UniProt P49841);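 note: value comes from a broad kinome profiling panel, with GSK3B as the panel member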
Sequence of Glycogen synthase kinase-3 beta (P49841 whole entry): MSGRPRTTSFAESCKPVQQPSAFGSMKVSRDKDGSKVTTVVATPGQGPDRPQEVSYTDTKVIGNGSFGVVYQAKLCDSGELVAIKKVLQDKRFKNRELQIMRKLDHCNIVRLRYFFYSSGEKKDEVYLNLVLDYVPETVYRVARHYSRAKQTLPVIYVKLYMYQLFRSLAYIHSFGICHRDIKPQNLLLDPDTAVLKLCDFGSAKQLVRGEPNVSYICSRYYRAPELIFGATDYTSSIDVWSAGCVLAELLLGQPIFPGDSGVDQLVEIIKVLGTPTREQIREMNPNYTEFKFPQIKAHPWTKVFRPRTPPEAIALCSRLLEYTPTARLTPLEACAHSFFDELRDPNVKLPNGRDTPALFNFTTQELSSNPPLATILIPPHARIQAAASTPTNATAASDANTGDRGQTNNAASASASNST

[26] = biological target: BDNF/NT-3 growth factors receptor (Homo sapiens, UniProt Q16620);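 note: NTRK2 measured as one member of a broad kinome-wide kinase profiling panel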
[27] = biological target: cAMP-dependent protein kinase catalytic subunit alpha (Homo sapiens, UniProt P17612)
[28] = biological target: Dual specificity protein kinase CLK4 (Homo sapiens, UniProt Q9HAZ1)
[29] = biological target: Macrophage colony-stimulating factor 1 receptor (Homo sapiens, UniProt P07333);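 note: value comes from the Navigating the Kinome screening panel, CSF1R member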
[30] = biological target: Dual specificity mitogen-activated protein kinase kinase 2 (Homo sapiens, UniProt P36507); experiment: Navigating the Kinome. Panel member name: MAP2K2
[31] = biological target: Dual specificity tyrosine-phosphorylation-regulated kinase 1A (Homo sapiens, UniProt Q13627);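 note: measured against DYRK1A as one member of a broad kinome profiling panel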
[32] = biological target: Inhibitor of nuclear factor kappa-B kinase subunit epsilon (Homo sapiens, UniProt Q14164); experiment: Navigating the Kinome. Panel member name: IKBKE
[33] = biological target: Calcium/calmodulin-dependent protein kinase type II subunit alpha (Homo sapiens, UniProt Q9UQM7); experiment: Navigating the Kinome. Panel member name: CAMK2A
Sequence of Calcium/calmodulin-dependent protein kinase type II subunit alpha (Q9UQM7 whole entry): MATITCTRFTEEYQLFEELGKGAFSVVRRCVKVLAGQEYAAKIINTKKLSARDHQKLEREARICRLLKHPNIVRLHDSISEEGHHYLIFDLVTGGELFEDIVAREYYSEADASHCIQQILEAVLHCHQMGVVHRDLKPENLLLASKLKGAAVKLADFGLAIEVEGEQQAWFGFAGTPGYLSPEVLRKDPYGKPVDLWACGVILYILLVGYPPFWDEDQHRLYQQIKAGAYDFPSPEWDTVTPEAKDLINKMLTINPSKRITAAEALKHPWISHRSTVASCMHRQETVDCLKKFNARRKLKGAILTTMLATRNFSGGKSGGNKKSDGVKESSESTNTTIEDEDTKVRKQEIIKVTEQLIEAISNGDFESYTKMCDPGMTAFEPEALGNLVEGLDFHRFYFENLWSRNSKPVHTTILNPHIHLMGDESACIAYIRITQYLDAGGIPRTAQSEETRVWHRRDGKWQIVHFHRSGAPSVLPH

[34] = biological target: Mitogen-activated protein kinase 14 (Homo sapiens, UniProt Q16539);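 note: part of a kinome-wide panel, MAPK14 entry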

SMILES	Ki [1]	Ki [2]	Ki [3]	Ki [4]	Ki [5]	Ki [6]	Ki [7]	Ki [8]	Ki [9]	Ki [10]	Ki [11]	Ki [12]	Ki [13]	Ki [14]	Ki [15]	Ki [16]	Ki [17]	Ki [18]	Ki [19]	Ki [20]	also measured
CCCOc1cccc(C(C)NC(=O)c2ccc(-c3ccncc3F)cc2)c1 (stereo not drawn)	2 µM (active)	> 3.98 µM (inactive)	> 2.51 µM (inactive)	> 3.16 µM (inactive)	> 6.31 µM (inactive)	> 3.16 µM (inactive)	> 3.98 µM (inactive)	> 5.01 µM (inactive)	> 5.01 µM (inactive)	> 5.01 µM (inactive)	> 3.98 µM (inactive)	> 6.31 µM (inactive)	> 3.16 µM (inactive)	3.16 µM (active)	> 3.16 µM (inactive)	> 3.98 µM (inactive)	> 3.16 µM (inactive)	> 2.51 µM (inactive)	0.501 µM (active)	> 2.51 µM (inactive)	Ki [21]: 0.000794 µM (active); Ki [22]: > 6.31 µM (inactive); Ki [23]: > 3.98 µM (inactive); Ki [24]: > 3.98 µM (inactive); Ki [25]: 2.51 µM (active); Ki [26]: > 3.98 µM (inactive); Ki [27]: 1 µM (active); Ki [28]: 0.1 µM (active); Ki [29]: > 2.51 µM (inactive); Ki [30]: > 3.98 µM (inactive); Ki [31]: > 2 µM (inactive); Ki [32]: > 3.16 µM (inactive); Ki [33]: > 7.94 µM (inactive); Ki [34]: > 3.98 µM (inactive)
COc1cccc(C(C)NC(=O)c2cnc(-c3ccncc3)nc2)c1 (stereo not drawn)	0.631 µM (active)	> 3.98 µM (inactive)	> 2.51 µM (inactive)	> 3.16 µM (inactive)	> 6.31 µM (inactive)	> 3.16 µM (inactive)	> 3.98 µM (inactive)	> 5.01 µM (inactive)	> 5.01 µM (inactive)	> 5.01 µM (inactive)	> 3.98 µM (inactive)	> 6.31 µM (inactive)	> 3.16 µM (inactive)	2.51 µM (active)	> 3.16 µM (inactive)	> 3.98 µM (inactive)	> 3.16 µM (inactive)	> 2.51 µM (inactive)	1.26 µM (active)	> 2.51 µM (inactive)	Ki [21]: 0.00398 µM (active); Ki [22]: > 6.31 µM (inactive); Ki [23]: > 3.98 µM (inactive); Ki [24]: > 3.98 µM (inactive); Ki [25]: 1.58 µM (active); Ki [26]: > 3.98 µM (inactive); Ki [27]: 0.126 µM (active); Ki [28]: > 2.51 µM (inactive); Ki [29]: > 2.51 µM (inactive); Ki [30]: > 3.98 µM (inactive); Ki [31]: > 2 µM (inactive); Ki [32]: > 3.16 µM (inactive); Ki [33]: > 7.94 µM (inactive); Ki [34]: > 3.98 µM (inactive)
